# Measured values taken from PMC4358367, “Structural basis of diverse membrane target recognitions by ankyrins” (eLife, 2014).
# Where no end group is shown, it is not given here.
# Assays:
# AnkG R1-6 = target: T1, AnkG R1-6 (Rattus norvegicus, UniProt O70511, DEL222-823); assay: ITC binding to AnkG R1-6 truncation; details: 25°C, pH 7.5, one-site binding model
# T1 construct: thioredoxin-His6 (N); made in house; host or cells: Escherichia coli BL21 (DE3)
# From the text: (§1) The coding sequences of AnkB_repeats (residues 28–873) were PCR amplified using the full-length human 220 kDa AnkB as the template. The coding sequences of the AnkR constructs, including AnkR_repeats (residues 42–853), and the full length AnkR C-terminal domain (residues 1529–1907), were PCR amplified from a mouse muscle cDNA library. The coding sequence of AnkG_repeats (residues 38–855) were PCR amplified using the full-length rat 190 kDa AnkG as the template. The fusion construct of AnkR_AS and AnkB_repeats was made by standard two-step PCR with a coding sequence of thrombin recognition residues ‘GSLVPRGS’ as the linker. This construct was used to crystallize and determine the complex structure. The same strategy was used in making other fusion constructs, including the Nav1.2_ABD-C/AnkB_repeats_R1–9 fusion construct containing residues 1103–1129 from mouse Nav1.2 and human AnkB residues 28–318 followed by a capping sequence corresponding to the αB of R24 (residues 814–822) and the AnkR_AS/AnkG_repeats fusion construct. […]
# (§2) Isothermal titration calorimetry (ITC) measurements were carried out on a VP-ITC MicroCal calorimeter (MicroCal, Northampton, MA) at 25°C. […] The titration data were analyzed using the program Origin 7.0 and fitted by the one-site binding model.
# AnkB_repeats WT = target: T2, AnkB_repeats WT (Homo sapiens, UniProt Q01484); assay: Fluorescence polarization binding to AnkB_repeats WT; details: deduced from ANK repeats WT and site mutants
# T2 construct: thioredoxin-His6 (N); made in house; host or cells: Escherichia coli BL21 (DE3)
# T2 sequence (Q01484 28-873 isoform Q01484-2): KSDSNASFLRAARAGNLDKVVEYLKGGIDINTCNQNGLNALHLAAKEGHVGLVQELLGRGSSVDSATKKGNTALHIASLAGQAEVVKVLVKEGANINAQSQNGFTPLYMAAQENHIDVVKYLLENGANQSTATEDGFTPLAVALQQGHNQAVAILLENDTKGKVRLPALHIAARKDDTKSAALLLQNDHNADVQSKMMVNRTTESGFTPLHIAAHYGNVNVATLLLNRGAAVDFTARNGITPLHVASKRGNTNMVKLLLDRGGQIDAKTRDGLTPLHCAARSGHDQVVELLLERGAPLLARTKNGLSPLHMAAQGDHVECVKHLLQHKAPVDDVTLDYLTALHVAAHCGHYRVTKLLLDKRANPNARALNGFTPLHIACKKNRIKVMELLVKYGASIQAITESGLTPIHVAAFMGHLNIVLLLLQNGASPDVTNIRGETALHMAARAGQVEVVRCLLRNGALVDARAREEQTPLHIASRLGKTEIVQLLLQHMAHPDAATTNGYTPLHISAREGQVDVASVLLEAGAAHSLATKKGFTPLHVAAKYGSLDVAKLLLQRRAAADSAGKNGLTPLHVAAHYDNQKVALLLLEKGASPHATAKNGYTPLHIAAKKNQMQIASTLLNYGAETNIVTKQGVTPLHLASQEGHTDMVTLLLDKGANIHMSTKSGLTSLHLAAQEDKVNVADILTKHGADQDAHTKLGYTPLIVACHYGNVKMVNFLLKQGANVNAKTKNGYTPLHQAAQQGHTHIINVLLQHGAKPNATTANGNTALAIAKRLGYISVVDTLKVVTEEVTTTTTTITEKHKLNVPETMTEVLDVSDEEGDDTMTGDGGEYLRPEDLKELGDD
# From the text: as §1, with “construct. For truncation mutations of ANK repeats constructs, the same capping sequence was added to the appropriate region of the C-terminus of each construct for protein stabilization.” for “construct.”
# Fluorescence assays were performed on a PerkinElmer LS-55 fiuorimeter equipped with an automated polarizer at 25°C. […]
# AnkR_repeats = target: T3, AnkR_repeats (Mus musculus, UniProt Q02357); assay: ITC binding to AnkR_repeats; details: VP-ITC, 25°C, 50 mM Tris, 100 mM NaCl, 1 mM EDTA, 1 mM DTT, pH 7.5, one-site binding model, ND = no detectable binding
# T3 construct: thioredoxin-His6 (N); made in house; host or cells: Escherichia coli BL21 (DE3)
# T3 sequence (Q02357 5-816): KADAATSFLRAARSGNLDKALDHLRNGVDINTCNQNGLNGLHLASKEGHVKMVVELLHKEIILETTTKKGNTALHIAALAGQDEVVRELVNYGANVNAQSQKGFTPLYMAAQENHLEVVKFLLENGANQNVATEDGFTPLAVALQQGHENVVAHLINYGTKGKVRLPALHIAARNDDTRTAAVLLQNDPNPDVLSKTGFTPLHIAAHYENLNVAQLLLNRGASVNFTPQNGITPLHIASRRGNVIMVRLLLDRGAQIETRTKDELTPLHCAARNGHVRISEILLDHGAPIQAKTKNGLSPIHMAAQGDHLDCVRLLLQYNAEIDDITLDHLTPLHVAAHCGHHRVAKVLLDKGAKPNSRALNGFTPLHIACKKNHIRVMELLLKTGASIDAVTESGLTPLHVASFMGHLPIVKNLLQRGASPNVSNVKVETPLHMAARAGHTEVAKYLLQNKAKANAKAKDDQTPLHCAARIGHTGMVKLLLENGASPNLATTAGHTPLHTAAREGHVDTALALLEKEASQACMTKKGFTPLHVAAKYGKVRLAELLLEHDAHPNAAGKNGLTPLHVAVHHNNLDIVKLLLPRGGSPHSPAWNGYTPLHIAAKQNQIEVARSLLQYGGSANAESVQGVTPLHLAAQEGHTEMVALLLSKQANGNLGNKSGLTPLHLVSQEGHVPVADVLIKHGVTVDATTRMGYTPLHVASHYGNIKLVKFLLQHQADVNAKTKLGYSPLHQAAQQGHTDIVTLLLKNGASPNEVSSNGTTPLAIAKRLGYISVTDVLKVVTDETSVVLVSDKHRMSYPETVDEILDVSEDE
# From the text: as §1, §2
# AnkG_repeats I267,L300Q = target: T4, AnkG_repeats I267,L300Q (Rattus norvegicus, UniProt O70511, I277Q/L310Q); assay: ITC binding to AnkG_repeats IL mutant (site 2); details: in words
# T4 construct: thioredoxin-His6 (N); made in house; host or cells: Escherichia coli BL21 (DE3)
# T4 sequence (O70511 38-855 I277Q/L310Q): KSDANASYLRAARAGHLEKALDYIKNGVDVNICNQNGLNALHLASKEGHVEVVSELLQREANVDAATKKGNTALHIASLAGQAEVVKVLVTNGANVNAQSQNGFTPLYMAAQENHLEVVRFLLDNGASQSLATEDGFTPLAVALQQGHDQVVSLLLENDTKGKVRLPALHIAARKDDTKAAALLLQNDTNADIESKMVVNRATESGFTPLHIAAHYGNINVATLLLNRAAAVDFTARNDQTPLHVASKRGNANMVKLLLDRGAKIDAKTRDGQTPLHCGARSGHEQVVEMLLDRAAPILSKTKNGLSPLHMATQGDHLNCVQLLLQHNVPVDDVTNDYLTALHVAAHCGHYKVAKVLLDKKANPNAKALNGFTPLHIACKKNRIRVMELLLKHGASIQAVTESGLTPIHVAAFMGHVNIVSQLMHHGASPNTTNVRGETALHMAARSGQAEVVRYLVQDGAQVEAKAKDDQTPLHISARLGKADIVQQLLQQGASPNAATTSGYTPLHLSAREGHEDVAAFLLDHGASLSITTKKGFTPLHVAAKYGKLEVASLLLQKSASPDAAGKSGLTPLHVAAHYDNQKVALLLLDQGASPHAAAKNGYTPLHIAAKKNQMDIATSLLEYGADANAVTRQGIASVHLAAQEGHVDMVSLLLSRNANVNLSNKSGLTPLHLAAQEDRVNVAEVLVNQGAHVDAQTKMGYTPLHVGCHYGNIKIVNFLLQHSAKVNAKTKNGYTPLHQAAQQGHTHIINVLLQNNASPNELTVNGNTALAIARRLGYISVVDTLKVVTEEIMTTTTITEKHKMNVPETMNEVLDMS
# From the text: (§3) We next examined the interactions of AnkG_repeats with Nav1.2 and Nfasc using the structure of the ANK repeats/AS complex to design mutations specifically affecting each predicted site. […] To probe the binding sites of Nav1.2 and Nfasc on AnkG, we constructed AnkG_repeat mutants with the corresponding hydrophobic residues in binding site 1 (Phe131 and Phe164 in R4 and R5, termed ‘FF’), site 2 (Ile267 and Leu300 in R8 and R9; ‘IL’), and site 3 (Leu366, Phe399, and Leu432 in R11, R12, and R13; ‘LFL’) substituted with Gln (Figure 3D), and examined their binding to the two targets. […] The mutations in site 3 weakened ANK repeat binding to both targets (Figure 3F, Figure 3—figure supplement 3 and Figure 3—figure supplement 4). […] This conclusion is further supported by the binding of the two targets to various AnkG_repeat truncation mutants (Figure 3F, Figure 3—figure supplement 3 and Figure 3—figure supplement 4).
# (§4) The coding sequences of AnkB_repeats (residues 28–873) were PCR amplified using the full-length human 220 kDa AnkB as the template. […]
# as §2
# AnkG_repeats [1] = target: T5, AnkG_repeats (Rattus norvegicus, UniProt O70511); assay: ITC binding to AnkG_repeats WT; details: deduced from site mutants and truncations
# T5 construct: thioredoxin-His6 (N); made in house; host or cells: Escherichia coli BL21 (DE3)
# T5 sequence (O70511 38-855): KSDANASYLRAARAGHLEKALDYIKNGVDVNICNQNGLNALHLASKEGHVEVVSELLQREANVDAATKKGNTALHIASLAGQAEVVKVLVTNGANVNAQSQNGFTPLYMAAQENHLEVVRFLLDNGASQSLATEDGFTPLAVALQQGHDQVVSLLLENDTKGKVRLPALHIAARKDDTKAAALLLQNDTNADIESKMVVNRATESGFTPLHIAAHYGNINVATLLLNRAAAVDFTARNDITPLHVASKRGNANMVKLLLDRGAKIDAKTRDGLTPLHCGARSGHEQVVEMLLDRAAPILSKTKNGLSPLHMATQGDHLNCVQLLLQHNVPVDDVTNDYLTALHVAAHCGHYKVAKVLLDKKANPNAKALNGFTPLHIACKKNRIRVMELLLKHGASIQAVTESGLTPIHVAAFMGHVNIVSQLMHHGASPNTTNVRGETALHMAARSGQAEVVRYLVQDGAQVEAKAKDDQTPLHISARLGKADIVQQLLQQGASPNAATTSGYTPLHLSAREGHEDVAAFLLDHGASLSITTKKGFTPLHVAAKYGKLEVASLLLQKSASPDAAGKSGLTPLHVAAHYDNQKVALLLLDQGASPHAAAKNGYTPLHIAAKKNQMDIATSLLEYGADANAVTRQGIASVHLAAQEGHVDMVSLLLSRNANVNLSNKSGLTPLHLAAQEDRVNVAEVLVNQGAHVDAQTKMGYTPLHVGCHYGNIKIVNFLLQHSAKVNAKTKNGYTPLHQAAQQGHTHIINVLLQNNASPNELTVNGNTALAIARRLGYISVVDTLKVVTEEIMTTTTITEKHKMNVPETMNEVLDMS
# From the text: The coding sequences of AnkB_repeats (residues 28–873) were PCR amplified using the full-length human 220 kDa AnkB as the template. The coding sequences of the AnkR constructs, including AnkR_repeats (residues 42–853), and the full length AnkR C-terminal domain (residues 1529–1907), were PCR amplified from a mouse muscle cDNA library. The coding sequence of AnkG_repeats (residues 38–855) were PCR amplified using the full-length rat 190 kDa AnkG as the template. The fusion construct of AnkR_AS and AnkB_repeats was made by standard two-step PCR with a coding sequence of thrombin recognition residues ‘GSLVPRGS’ as the linker. This construct was used to crystallize and determine the complex structure. The same strategy was used in making other fusion constructs, including the Nav1.2_ABD-C/AnkB_repeats_R1–9 fusion construct containing residues 1103–1129 from mouse Nav1.2 and human AnkB residues 28–318 followed by a capping sequence corresponding to the αB of R24 (residues 814–822) and the AnkR_AS/AnkG_repeats fusion construct. For truncation mutations of ANK repeats constructs, the same capping sequence was added to the appropriate region of the C-terminus of each construct for protein stabilization. Mouse Nav1.2 (NP_001092768.1) and mouse neurofascin (CAD65849.1) were used here for studying their interaction with ankyrins. Peptides for mouse KCNQ2 (NP_034741.2, residues 826–845) and mouse Cav1.3 (NP_083257.2, residues 2134–2166) were commercially synthesized. For simplicity, we used human 220 kDa AnkB for the amino acid numbering throughout the manuscript. For the corresponding point mutations made on AnkG_repeats, each residue number should be increased by 10. All point mutations were created using the Quick Change site-directed mutagenesis kit and confirmed by DNA sequencing. […]
# as §2
# [2] = target: T6, AnkG_repeats L366,F399,L432Q (Rattus norvegicus, UniProt O70511, F409Q/L376Q/L442Q); assay: ITC binding to AnkG_repeats LFL mutant (site 3); details: in words
# T6 construct: thioredoxin-His6 (N); made in house; host or cells: Escherichia coli BL21 (DE3)
# T6 sequence (O70511 38-855 L376Q/F409Q/L442Q): as the sequence (O70511 38-855 I277Q/L310Q) above, with Q240I, Q273L, L339Q, F372Q, L405Q counted along it
# From the text: as §3, §4, §2
# AnkG_repeats F131,F164Q = target: T7, AnkG_repeats F131,F164Q (Rattus norvegicus, UniProt O70511, F141Q/F174Q); assay: ITC binding to AnkG_repeats FF mutant (site 1); details: in words
# T7 construct: thioredoxin-His6 (N); made in house; host or cells: Escherichia coli BL21 (DE3)
# T7 sequence (O70511 38-855 F141Q/F174Q): as the sequence (O70511 38-855 I277Q/L310Q) above, with F104Q, F137Q, Q240I, Q273L counted along it
# From the text: as §3, §4, §2
# AnkG_repeats [3] = target: T5, AnkG_repeats; assay: Analytical gel filtration of AS-AnkG_repeats fusion with Nav1.2 or Nfasc ABD; type: binding; details: Superose 12 10/300 GL, 50 mM Tris, 100 mM NaCl, 1 mM EDTA, 1 mM DTT, pH 7.5
# From the text: as §1, with “construct. For truncation mutations of ANK repeats constructs, the same capping sequence was added to the appropriate region of the C-terminus of each construct for protein stabilization. Mouse Nav1.2 (NP_001092768.1) and mouse neurofascin (CAD65849.1) were used here for studying their interaction with ankyrins.” for “construct.”
# T1 sequence (O70511 with tags, fused parts or gaps DEL222-823 limits assumed): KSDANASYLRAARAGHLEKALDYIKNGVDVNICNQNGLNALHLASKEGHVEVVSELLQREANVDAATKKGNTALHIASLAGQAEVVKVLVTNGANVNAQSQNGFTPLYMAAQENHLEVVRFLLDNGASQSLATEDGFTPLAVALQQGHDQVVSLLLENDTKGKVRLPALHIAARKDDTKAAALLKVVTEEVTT
substance,measurement,setting,value
TVTVPIAVGESDFENLNTEEFSSESDM [ABD-C (1103 - 1129)],Kd,AnkG R1-6,2300 ± 200 nM
"FITC-Cav1.3 peptide: mouse Cav1.3 (NP_083257.2, residues 2134–2166), commercially synthesized (NGDMGPISHRQDYELQDFGPGYSDEEPDPGREE; also: FITC label; UniProt Q99246 2134-2166, looked up, fragment)",ANK repeat sites used for binding,AnkB_repeats WT,primarily relies on site 2
CADQYWNEVAVIDAIPLAATEHDTMLEMSDMQVWSAGLTPSLVTAEDS [AnkR_AS],Kd,AnkR_repeats,360 ± 20 nM
SDDSLVDYGEGGEGQFNEDGSFIGQYTV [Nfasc_ABD],effect of site 2 mutations on binding,"AnkG_repeats I267,L300Q",significantly weakened
same,ANK repeat sites used for binding,AnkG_repeats [1],sites 2 and 3
same,effect of site 3 mutations on binding,[2],weakened
same,effect of site 1 mutations on binding,"AnkG_repeats F131,F164Q",no impact
same,complex formation with AS-AnkG_repeats fusion protein,AnkG_repeats [3],No complex peaks formed
